From patent US20250222120A1, “SYNTHESIS OF NOVEL SMALL MOLECULE CARM1 DEGRADERS, COMPOUNDS FORMED THEREBY, AND PHARMACEUTICAL COMPOSITIONS CONTAINING THEM” (Wisconsin Alumni Research Foundation, priority 2024, published 2025)
Peptide text beside a SMILES is read from it. * marks the point of attachment. Cbz = O=C(OCc1ccccc1)*

molecular target: T1, CARM1 (Homo sapiens, UniProt Q86X55); assay: CARM1 degradation by western blot in MCF7 cells; assay type: cell-based; parameters: Cell lysates were collected and the CARM1 levels were detected by western blots; endogenous in cells; host or cells: MCF7; settings: 0.5 μM, 24 h
T1 sequence (Q86X55 1-608): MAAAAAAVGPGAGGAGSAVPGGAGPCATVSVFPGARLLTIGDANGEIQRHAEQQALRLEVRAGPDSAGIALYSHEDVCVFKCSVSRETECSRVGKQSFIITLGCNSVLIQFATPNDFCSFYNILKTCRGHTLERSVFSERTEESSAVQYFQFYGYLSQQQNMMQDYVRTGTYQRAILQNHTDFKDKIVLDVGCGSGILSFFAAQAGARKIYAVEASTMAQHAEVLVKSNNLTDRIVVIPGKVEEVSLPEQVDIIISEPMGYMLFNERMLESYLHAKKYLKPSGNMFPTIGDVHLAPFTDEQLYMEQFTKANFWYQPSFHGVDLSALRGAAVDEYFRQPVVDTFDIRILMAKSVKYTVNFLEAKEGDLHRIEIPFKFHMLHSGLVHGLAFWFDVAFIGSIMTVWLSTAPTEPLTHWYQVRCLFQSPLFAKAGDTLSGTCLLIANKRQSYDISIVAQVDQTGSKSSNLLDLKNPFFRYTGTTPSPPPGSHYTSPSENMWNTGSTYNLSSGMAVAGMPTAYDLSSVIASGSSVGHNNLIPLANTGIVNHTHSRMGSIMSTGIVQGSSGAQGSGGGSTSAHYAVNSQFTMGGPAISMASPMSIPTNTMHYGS
Experimental: Based on the structure of TPVC3, CARM1 degraders with stable and flexible alkyl linkages 2a-e were designed and synthesized. Degrader 2b bears the same linker length as TPVC3, while 2a has one less carbon. However, we also changed the hydrolytic labile C═N double bond, which is part of the acylhydrazone motif, in TPVC3 to a C—C bond in compound 2b. This change may influence the required optimal linker length. […] Western blot assays were performed to evaluate the CARM1 degradation activity of the compounds after treating MCF7 cells with these degraders at two concentrations (0.5 and 1.0 μM) for 24 h. […] It has one less carbon atom than 2a in terms of length. […] It has the same linker length as 2d.
The treatment dose and time were determined based on time-course and dose titration experiments (FIG. 4B-4C).
Western Blot Assay. Cells were harvested and washed with Dulbecco's phosphate-buffered saline (PBS), then lysed with 1×RIPA lysis buffer (50 mM Tris pH 7.5, 150 mM NaCl, 1% NP-40, 0.5% sodium deoxycholate, and 0.1% sodium dodecyl sulfate) supplemented with 1 mM phenylmethylsulfonyl fluoride, 10 μg/mL aprotinin, 1 μM leupeptin, and 10 μg/mL pepstatin on ice for 20 min. The supernatant was collected after spinning down at 15000 RPM at 4 degrees Celsius for 10 min. The concentration of whole lysates was quantified using a Bradford assay. 50-75 μg of cell lysates was boiled in 4× Laemmli Loading Dye and boiled at 100 degrees Celsius for 10 min. 25 μg were run in 8% SDS-PAGE gels and transferred to nitrocellulose membranes. Blots were blocked in 5% skim milk in PBST [PBS and 0.1% Tween 20] for 45 min, then incubated with primary antibodies at 4 degrees Celsius overnight. Blots were washed in PBST for 30 min, then incubated with horseradish peroxidase-linked secondary antibodies (Jackson ImmunoResearch) for 1 hr. Afterwards, blots were washed in PBST for 15-30 min, then treated with chemiluminescent ECL reagent and imaged with the ChemiDoc Imaging System (Bio-Rad) or Azure 600 (Azure Biosystems). Expression levels of the indicated proteins were probed by the following antibodies: anti-CARM1, anti-me-BAF155, anti-me-PABP1, anti-PABP1,^7 anti-BAF155 (D7F8S, Cell Signaling Technology), anti-PRMT1 (Bethyl), anti-PRMT6 (D-5, Santa Cruz Biotechnology), anti-β-Actin (ABclonal Technology, Sigma-Aldrich), anti-Hsp90 (H-114, Santa Cruz Biotechnology).

Row | Structure (SMILES) | CARM1 degradation activity
1 | CNCCN1CCC(c2cc(CN(C)C(=O)c3cccc(Oc4ccc(C(=O)N5CCC(CN6CCC(CN7CCN(CC(=O)N[C@H](C(=O)N8C[C@H](O)C[C@H]8C(=O)N[C@@H](C)c8ccc(-c9scnc9C)cc8)C(C)(C)C)CC7)CC6)CC5)cc4)c3)ccn2)CC1 [Compound 3c, (2S,4R)-1-((S)-3,3-dimethyl-2-(2-(4-((1-((1-(4-(3-(methyl((2-(1-(2-(methylamino)ethyl)piperidin-4-yl)pyridin-4-yl)methyl)carbamoyl)phenoxy)benzoyl)piperidin-4-yl)methyl)piperidin-4-yl)methyl)piperazin-1-yl)acetamido)butanoyl)-4-hydroxy-N—((S)-1-(4-(4-methylthiazol-5-yl)phenyl)ethyl)pyrrolidine-2-carboxamide] | significantly lower CARM1 degradation activities
2 | CNCCN1CCC(c2cc(CN(C)C(=O)c3cccc(Oc4ccc(CC(=O)N5CCC(CN6CCC(CN7CCN(CC(=O)N[C@H](C(=O)N8C[C@H](O)C[C@H]8C(=O)N[C@@H](C)c8ccc(-c9scnc9C)cc8)C(C)(C)C)CC7)CC6)CC5)cc4)c3)ccn2)CC1 [Compound 3d, (2S,4R)-1-((S)-3,3-dimethyl-2-(2-(4-((1-((1-(2-(4-(3-(methyl((2-(1-(2-(methylamino)ethyl)piperidin-4-yl)pyridin-4-yl)methyl)carbamoyl)phenoxy)phenyl)acetyl)piperidin-4-yl)methyl)piperidin-4-yl)methyl)piperazin-1-yl)acetamido)butanoyl)-4-hydroxy-N—((S)-1-(4-(4-methylthiazol-5-yl)phenyl)ethyl)pyrrolidine-2-carboxamide] | significantly lower CARM1 degradation activities

same assay, conditions: 0.5 and 1.0 μM, 24 h

Row | Structure (SMILES) | CARM1 degradation activity, alkyl-linker degraders
3 | CNCCN1CCC(c2cc(CN(C)C(=O)c3cccc(Oc4ccc(OCC(=O)NCc5ccc(OCCCC(=O)N[C@H](C(=O)N6C[C@H](O)C[C@H]6C(=O)N[C@@H](C)c6ccc(-c7scnc7C)cc6)C(C)(C)C)cc5)cc4)c3)ccn2)CC1 [Compound 2a, (2S,4R)-1-((S)-3,3-dimethyl-2-(4-(4-((2-(4-(3-(methyl((2-(1-(2-(methylamino)ethyl)piperidin-4-yl)pyridin-4-yl)methyl)carbamoyl)phenoxy)phenoxy)acetamido)methyl)phenoxy)butanamido)butanoyl)-4-hydroxy-N—((S)-1-(4-(4-methylthiazol-5-yl)phenyl)ethyl)pyrrolidine-2-carboxamide] | 2d and 2e showed stronger CARM1 degradation activities than 2a, 2b, and 2c
4 | CNCCN1CCC(c2cc(CN(C)C(=O)c3cccc(Oc4ccc(OCC(=O)NCCc5ccc(OCCCC(=O)N[C@H](C(=O)N6C[C@H](O)C[C@H]6C(=O)N[C@@H](C)c6ccc(-c7scnc7C)cc6)C(C)(C)C)cc5)cc4)c3)ccn2)CC1 [Compound 2b, (2S,4R)-1-((S)-3,3-dimethyl-2-(4-(4-(2-(2-(4-(3-(methyl((2-(1-(2-(methylamino)ethyl)piperidin-4-yl)pyridin-4-yl)methyl)carbamoyl)phenoxy)phenoxy)acetamido)ethyl)phenoxy)butanamido)butanoyl)-4-hydroxy-N—((S)-1-(4-(4-methylthiazol-5-yl)phenyl)ethyl)pyrrolidine-2-carboxamide] | 2d and 2e showed stronger CARM1 degradation activities than 2a, 2b, and 2c
5 | CNCCN1CCC(c2cc(CN(C)C(=O)c3cccc(Oc4ccc(OCC(=O)NCCc5ccc(OCCCCC(=O)N[C@H](C(=O)N6C[C@H](O)C[C@H]6C(=O)N[C@@H](C)c6ccc(-c7scnc7C)cc6)C(C)(C)C)cc5)cc4)c3)ccn2)CC1 [Compound 2c, (2S,4R)-1-((S)-3,3-dimethyl-2-(5-(4-(2-(2-(4-(3-(methyl((2-(1-(2-(methylamino)ethyl)piperidin-4-yl)pyridin-4-yl)methyl)carbamoyl)phenoxy)phenoxy)acetamido)ethyl)phenoxy)pentanamido)butanoyl)-4-hydroxy-N—((S)-1-(4-(4-methylthiazol-5-yl)phenyl)ethyl)pyrrolidine-2-carboxamide] | 2d and 2e showed stronger CARM1 degradation activities than 2a, 2b, and 2c
6 | CNCCN1CCC(c2cc(CN(C)C(=O)c3cccc(Oc4ccc(OCC(=O)NCCc5ccc(OCCCCCC(=O)N[C@H](C(=O)N6C[C@H](O)C[C@H]6C(=O)N[C@@H](C)c6ccc(-c7scnc7C)cc6)C(C)(C)C)cc5)cc4)c3)ccn2)CC1 [Compound 2d, (2S,4R)-1-((S)-3,3-dimethyl-2-(6-(4-(2-(2-(4-(3-(methyl((2-(1-(2-(methylamino)ethyl)piperidin-4-yl)pyridin-4-yl)methyl)carbamoyl)phenoxy)phenoxy)acetamido)ethyl)phenoxy)hexanamido)butanoyl)-4-hydroxy-N—((S)-1-(4-(4-methylthiazol-5-yl)phenyl)ethyl)pyrrolidine-2-carboxamide] | stronger CARM1 degradation activities
7 | CNCCN1CCC(c2cc(CN(C)C(=O)c3cccc(Oc4ccc(OCC(=O)NCCc5ccc(OCCCCCCC(=O)N[C@H](C(=O)N6C[C@H](O)C[C@H]6C(=O)N[C@@H](C)c6ccc(-c7scnc7C)cc6)C(C)(C)C)cc5)cc4)c3)ccn2)CC1 [Compound 2e, (2S,4R)-1-((S)-3,3-dimethyl-2-(7-(4-(2-(2-(4-(3-(methyl((2-(1-(2-(methylamino)ethyl)piperidin-4-yl)pyridin-4-yl)methyl)carbamoyl)phenoxy)phenoxy)acetamido)ethyl)phenoxy)heptanamido)butanoyl)-4-hydroxy-N—((S)-1-(4-(4-methylthiazol-5-yl)phenyl)ethyl)pyrrolidine-2-carboxamide] | stronger CARM1 degradation activities

molecular target: T1, CARM1; assay: CARM1 degradation by western blot in MCF7 cells; assay type: cell-based; parameters: Cell lysates were collected and the CARM1 levels were detected by western blots; endogenous in cells; host or cells: MCF7; settings: MCF7 cells, 0.5 μM 3b, 24 h; 7.5 μM MG132, 20 μM VH-032, 2 μM MLN4924, 10 μM TP-064

Row | Structure (SMILES) | Effect of competitor/inhibitor on 3b-induced CARM1 degradation
8 | CC(C)C[C@@H](C=O)NC(=O)[C@H](CC(C)C)NC(=O)[C@H](CC(C)C)NC(=O)OCc1ccccc1 [MG132, reference compound] (Cbz-Leu-Leu-Leu-aldehyde) | abrogated 3b-induced CARM1 degradation
9 | NS(=O)(=O)OC[C@@H]1C[C@@H](n2ccc3c(N[C@H]4CCc5ccccc54)ncnc32)C[C@@H]1O [MLN492437, reference compound] | abrogated 3b-induced CARM1 degradation
10 | CC(=O)N[C@H](C(=O)N1C[C@H](O)C[C@H]1C(=O)NCc1ccc(-c2scnc2C)cc1)C(C)(C)C [VH-032, reference compound] | abrogated 3b-induced CARM1 degradation
